In patent US20200268005A1, “PELLETED RUMINANT FEED ENRICHED WITH RUMEN-AVAILABLE INGREDIENTS” (BASF SE, priority 2014, published 2020):

Experiment: CLA analysis immediately after the processing step (pelleting / extrusion)
Type: physicochemical
Method: Preparation of the meal: Corn and extracted soybean meal were weighed in together, ground and mixed in a horizontal mixer. Lutalin or Lutrell were added and mixed in. The mixing time amounted to 15 minutes. These two mixtures were divided in each case. 80 kg were pelleted and 30 kg were extruded.
Pelleting press: Manufacturer Simon Heesen, horizontal die, 3.3×35 mm, nominal capacity 300 kg/hr. Extruder: Werner & Pfleiderer 37, die 2×0 3.9 mm, nominal capacity up to 50 kg/hr. Pelleting: Pelleting temperatures of 67-68.5° C. were reached. Extrusion: An extrusion temperature of 85° C. was reached, approximately 14% of water having been added. A residual moisture of 10 to 12% has been found in the end product.

activity loss on extrusion (extrusion temperature 85° C.): approx. 40%
Substance: conjugated linoleic acid [CLA]
survival of the pelleting process (pelleting 67-68.5° C., in words): survived the pelleting process very well
